Results published in ChEMBL document CHEMBL1129406, “Sustained decrease in cocaine-maintained responding in rhesus monkeys with 1-[2-[bis(4-fluorophenyl)methoxy]ethyl]-4-(3-hydroxy-3-phenylpropyl) piperazinyl decanoate, a long-acting ester derivative of GBR 12909” (1996).

Legend:
Format in all cases: functional, Cercopithecidae
Monkey [1] = test: Effect of compound on rate of response maintained by cocaine (4.026 resp/s,+/-13.6%) in monkeys
Monkey [2] = test: Effect of compound on rate of response maintained by cocaine (4.026 resp/s,+/-13.6%) in monkeys at a dose of 3 mL
Monkey [3] = test: Effect of compound on rate of response maintained by cocaine (4.026 resp/s,+/-13.6%) in monkeys at a dose of 6 mL
Monkey [4] = test: Effect of compound on rate of response maintained by food (3.696 resp/s, +/-9.99%) in monkeys
Monkey [5] = test: Effect of compound on rate of response maintained by food (3.696 resp/s, +/-9.99%) in monkeys at a dose of 3 mL

Molecule CCCCCCCCCC(=O)OC(CCN1CCN(CCOC(c2ccc(F)cc2)c2ccc(F)cc2)CC1)c1ccccc1 (stereo not given) has a Control (Monkey [1]) of 76.2%, a Control (Monkey [2]) of 74% and a Control (Monkey [3]) of 25.3%. The Control (Monkey [4]) was 97% and the Control (Monkey [5]) was 82%.
